# Measured values taken from US5281710A, “Dynemicin analogs: synthesis, methods of preparation and use” (The Scripps Research Institute, priority 1992, dated 1994).
# Where two headings read alike, the source gives them in different places.
# Assays:
# cancer cell lines = assay: cells; type: cell-based; settings: Average data obtained from 5~10 cell lines; read-out: IC50 (average)
# Experimental: (§1) In addition to the screening already discussed, several of the before-described compounds and chimeras were screened against several or all of a panel of ten to twenty-five cancerous cell lines as target cells and seven "normal" cell preparations. This screening utilized a sulforhodamine B cytotoxidity assay as discussed below.
# SULFORHODAMINE B CYTOTOXICITY ASSAY
# a. Stock drug solutions were prepared by dissolving drug in the appropriate solvent (determined during chemical characterization studies) and sterile filtering the drug-solvent solution through a sterile 0.2μ filter unit. An aliquot was taken from each filtered drug solution and the O.D. was measured to determine the drug concentration.
# f. Incubate (37° C., 5-10 percent CO2 in humidified incubator) plates for a total of 72 hours. Check plates at 24 hour intervals microscopically for signs of cytotoxicity.
# (§2) IC50 values; i.e., the concentration of Compound required to kill one-half of the treated cells, were then calculated.
# All other cells or cell lines were obtained from the American Type Culture Collection (ATCC) (all except CHO cells are human or mouse cancer cell lines as described by the ATC).
# Tables 1 and 2 herein below provide average IC50 data from five to all ten of the above cancer cells lines for fused ring enediyne compounds disclosed herein. Those tables provide a generic structure and a description of the R group of that generic structure for each compound. Compound numbers as noted hereinbefore are also provided. Table 3 contains data for two fused-ring enediyne compounds (Compounds 47 and 120) as well as data for six chimers. Table 4 contains cancer cell and noraml cell cytotoxicity data for one select fused ring enediyne, Compound 153 against a number of "normal" cell preparations and tumor cell lines. Table 5 contains cancer cell and normal cell cytotoxicity data for another fused ring enediyne, Compound 250 against a similar panel of cells.
# in vitro = type: cell-based, human; settings: human, nhdf cells; Table 7, NHDF; read-out: Cytotoxicity (IC50)
# Experimental: as §1, §2
# NHDF Normal human dermal fibroblasts
# SK-Mel-28 melanoma cells = assay: Sulforhodamine B cytotoxicity, SK-Mel-28; type: cell-based; settings: Homo sapiens
# Experimental: as §1, §2
# [1] = tested on: Ovcar-3 ovarian carcinoma cells; assay: Sulforhodamine B cytotoxicity, Ovcar-3; type: cell-based; settings: read-out: Cytotoxicity (IC50)
# Experimental: as §1, §2
# [2] = tested on: HT-29 colon carcinoma cells; assay: Sulforhodamine B cytotoxicity, HT-29; type: cell-based; settings: Table 7, HT-29, read-out: Cytotoxicity (IC50)
# Experimental: as §1, §2
# [3] = tested on: MCF-7 breast carcinoma cells; assay: Sulforhodamine B cytotoxicity, MCF-7; type: cell-based; settings: Table 7, MCF-7, read-out: Cytotoxicity (IC50)
# Experimental: as §1, §2
# [4] = tested on: UCLA P-3 non-small cell lung carcinoma cells; assay: Sulforhodamine B cytotoxicity, UCLA-P3; type: cell-based, human; settings: read-out: Cytotoxicity (IC50)
# Experimental: as §1, §2
# UCLA P-3 Dr. D. Morton, University of California, […]
# [5] = tested on: H-322 lung carcinoma cells; assay: Sulforhodamine B cytotoxicity, H-322; type: cell-based; settings: NCI-H322; Table 7, H-322; read-out: Cytotoxicity (IC50)
# Experimental: as §1, §2
# [6] = tested on: Capan-1 pancreatic carcinoma cells; assay: Sulforhodamine B cytotoxicity, Capan-1; type: cell-based
# Experimental: as §1, §2
# [7] = tested on: HL-60 promyeocytic leukemia cells; assay: Sulforhodamine B cytotoxicity, HL-60; type: cell-based
# Experimental: as §1, §2
# [8] = tested on: P-388 mouse lymphoma cells; assay: Sulforhodamine B cytotoxicity, P-388; type: cell-based; settings: Mus musculus, P388; Table 7, P-388; read-out: Cytotoxicity (IC50)
# Experimental: as §1, §2
# [9] = Sulforhodamine B cytotoxicity, CHO; type: cell-based, Chinese hamster; settings: hamster, cho cells; Table 7, CHO; read-out: Cytotoxicity (IC50)
# Experimental: as §1, §2
# φX174 Form I DNA = assay: φX174 supercoiled DNA cleavage, agarose gel; type: biochemical; settings: for DNA cleavage: 37° C.
# Experimental: The ethereal solution of Compound 40 produced by the LiAlH4 reduction of Compound 21 (39 mg, 0.10 mmol) was evaporated in vacuo to dryness and the residue dissolved in THF (4 mL) to give a 25 mM solution of Compound 40, assuming complete conversion of Compound 21. […]
# Thus, a vial containing a 50 micromolar per base pair solution […] of the same buffer solution and 2.0 microliters of a 5.0 millimolar ethanol solution of Compound 40.
# […] A 2.0 microliter portion of glycerol loading buffer solution containing bromothymol blue indicator was added to each vial. A 10 microliter aliquot was then drawn from each. Gel electrophoresis analysis of the aliquots was performed using a 1.0 percent agarose gel with ethidium bromide run at 115 volts for 1 hour. DNA cleavage was indicated by the formation of nicked relaxed circular DNA (form II) or linearized DNA (form III), which was detected by visual inspection of the gel under 310 nanometer ultraviolet light using ethidium bromide.
# [10] = tested on: MCF-7(ADR) breast carcinoma cells; assay: Sulforhodamine B cytotoxicity, MCF-7/ADR; type: cell-based; settings: Homo sapiens, NCI/ADR-RES, Adriamycin resistant
# Experimental: as §1, §2
# [11] = tested on: P-388 leukemia cells in Balb/c mice; assay: In vivo P-388 leukemia in Balb/c mice; parameters: species or system mouse; settings: single dose
# Experimental: In an in vivo study whose results are shown in FIG. 8, Balb/c mice were injected intra-peritoneally with 10^6 P-388 leukemia cells per mouse (the cells were suspended in 100 μl RPMI medium) on day zero. Therapy was started on day 1 by injecting each group of four animals with the indicated dose of Compound 45, which was administered only once in this assay. The course of therapy was followed by tumor-induced weight change in the animals and by recording death incidents (arrows). […] At the dose of 25 mg/kg Compound 45, the increase in life span over the control group was 175 percent (therapeutic group/control group).
# [12] = Lethal dose / toxicity in mice; type: in vivo, mouse
# [13] = tested on: MOLT-4 (Leukemia) cell line; assay: cells; type: cell-based; settings: Table 7, Molt-4; read-out: Cytotoxicity (IC50)
# Experimental: as §1, §2
# [14] = tested on: tumor cells and "normal" cells; assay: Relative activity against tumor cells and normal cells; type: cell-based
# From the text: In contrast, 100 percent of normal human mammary epithelial cells (HMEC) were viable at the same concentration.
# [15] = tested on: SK-Mel-28, M-14, M-21, Capan-1, Ovcar-3, Ovcar-4, UCLA-P-3, U-87, U-251 and Molt-4 cell lines; type: cell-based; settings: ten tumor cell lines
# Experimental: In other studies, IC50 values were determined for the anti-tumor agents dynemicin A, calicheamicin γ1^I, taxol, vinblastine/vincristine, doxorubicin, actinomycin D and bleomycin sulfate against the SK-Mel-28, M-14, M-21, Capan-1, Ovcar-3, Ovcar-4, UCLA-P-3, U-87, U-251 and Molt-4 cell lines.
# [16] = SK-MEL-28, Table 7, SK-Mel-28, read-out: Cytotoxicity (IC50)
compound,measurement,setting,value
O=C(Oc1ccccc1)N1c2ccccc2C23OC24CCCC3C#C/C=C\C#CC14 (stereo not drawn) [Compound 21],IC50,cancer cell lines,5 µM
same,CC50,in vitro,6.3 µM
same,IC50,SK-Mel-28 melanoma cells; [16],63 µM
same,IC50,"[1]; Homo sapiens, OVCAR-3, Table 7, Ovcar-3",0.78 µM
same,IC50,"[2]; Homo sapiens, HT-29, 72 h",0.39 µM
same,IC50,"[3]; Homo sapiens, MCF7, 72 h",3.1 µM
same,IC50,"[4]; Homo sapiens, UCLA P-3, Table 7, UCLA-P3",0.78 µM
same,IC50,[5],3.1 µM
same,IC50,"[6]; Homo sapiens, CAPAN-1, Table 7, Capan-1, read-out: Cytotoxicity (IC50)",0.078 µM
same,IC50,"[7]; Homo sapiens, HL-60, Table 7, HL-60, read-out: Cytotoxicity (IC50)",0.098 µM
same,IC50,[8],0.098 µM
same,CC50,[9],6.3 µM
O=C(OCCS(=O)(=O)c1ccccc1)N1c2ccccc2C23OC24CCCC3C#C/C=C\C#CC14 (stereo not drawn) [Compound 45],DNA cleavage,"φX174 Form I DNA; pH 8.5, 24 or 48 hours",strong DNA cleavage activity
same,DNA cleavage potency,"φX174 Form I DNA; pH 8.5, 1000 and 100 μM",comparable potencies
same,IC50,cancer cell lines,0.2 µM
same,IC50,"SK-Mel-28 melanoma cells; SK-MEL-28, SK-Mel-28, read-out: IC50",6.3 µM
same,IC50,[10],1.6 µM
same,IC50,"[6]; Homo sapiens, CAPAN-1, Capan-1, read-out: IC50",1.6 µM
same,IC50,"[7]; Homo sapiens, HL-60, HL-60, read-out: IC50",3.9 µM
same,deaths / weight course,[11]; 12 mg/kg,three of the four animals died
same,increase in life span over control group,[11]; 25 mg/kg,175%
same,time to death,"[11]; 50 mg/kg, rapid weight loss",≤ 8 days
same,toxicity relative to naturally occurring enediynes,[12],significantly less than naturally occurring enediynes
same,LD50,"[12]; mouse, in vivo",~50 mg/kg
CC(COC(=O)N1c2ccccc2C23OC24CCCC3C#CC=CC#CC14)S(=O)(=O)c1ccccc1 (stereo not drawn) [Compound 427],DNA cleavage,"φX174 Form I DNA; 5.0 mM, pH 8.5 and 9.0, 48 hours",greatly reduced in vitro DNA cleaving ability
same,IC50,[13],0.001 µM
same,CC50,in vitro,< 100 µM
same,IC50,SK-Mel-28 melanoma cells; [16],50 µM
same,IC50,"[1]; Table 7, Ovcar-3",3.1 µM
same,IC50,[2]; 4320 min,0.78 µM
same,IC50,[3]; 4320 min,25 µM
same,IC50,"[4]; Table 7, UCLA-P3",3.1 µM
same,IC50,[5],13 µM
same,IC50,"[6]; Table 7, Capan-1, read-out: Cytotoxicity (IC50)",3.1 µM
same,IC50,"[7]; Table 7, HL-60, read-out: Cytotoxicity (IC50)",0.78 µM
same,IC50,[8],1.6 µM
same,CC50,[9],< 100 µM
same,selectivity between normal and cancer cells (qualitative),[14],reduced cytotoxicity of Compound 427 against normal cell lines while maintaining considerable activity against cancer cell lines
bleomycin sulfate [reference compound],relative potency among agents across cell lines,[15],considerably less active against all the cell lines
